{"source": "patent US9717247B2", "about": "“Synergistic fungicidal active combinations” (BAYER CROPSCIENCE AG, priority 2003, dated 2017)", "key": {"Puccinia recondita": {"tested_on": "Puccinia recondita", "experiment": "Puccinia recondita test (wheat)/curative", "conditions": "application rate 62.5 g/ha, curative, evaluation 8 days after inoculation"}, "[1]": {"tested_on": "Erysiphe graminis f.sp. hordei", "experiment": "Erysiphe test (barley)/protective", "format": "in vivo", "conditions": "application rate 12.5 g/ha, protective, evaluation 6 days after inoculation"}, "Rhizoctonia solani": {"tested_on": "Rhizoctonia solani", "experiment": "Rhizoctonia solani test (in vitro)/microtitre plates", "format": "cell-based", "conditions": "PDB, 5 days of incubation", "procedure": "Rhizoctonia solani Test (In Vitro)/Microtitre Plates The microtest is carried out in microtitre plates using potato dextrose broth (PDB) as liquid test medium. The active compounds are used as technical grade a.i., dissolved in acetone. For inoculation, a mycelium suspension of Rhizoctonia solani is used. After 5 days of incubation in the dark and with shaking (10 Hz) for each filled cavity of the microtitre plates, the light transmittance is determined with the aid of a spectrophotometer."}, "[2]": {"tested_on": "Erysiphe graminis f.sp. hordei", "experiment": "Erysiphe test (barley)/curative", "format": "in vivo", "conditions": "application rate 25 g/ha, curative, evaluation 6 days after inoculation"}, "Botrytis cinerea [3]": {"tested_on": "Botrytis cinerea", "experiment": "Botrytis cinerea test (bean)/protective", "conditions": "protective, 2 days after inoculation"}, "Plasmopara viticola": {"tested_on": "Plasmopara viticola", "experiment": "Plasmopara viticola test (grapevine)/protective", "format": "in vivo", "conditions": "protective, 6 days after inoculation"}, "Gibberella zeae": {"tested_on": "Gibberella zeae", "format": "cell-based", "conditions": "0.3 ppm; in vitro, PDB, 3 days of incubation"}, "Sphaerotheca fuliginea": {"tested_on": "Sphaerotheca fuliginea", "experiment": "Sphaerotheca fuliginea test (cucumber)/protective", "format": "in vivo", "conditions": "Podosphaera fuliginea, 168 h, protective, 7 days after inoculation, read-out: Efficacy in % found"}, "Botrytis cinerea [4]": {"tested_on": "Botrytis cinerea", "experiment": "Botrytis cinerea test (in vitro)/microtitre plates", "format": "cell-based", "conditions": "3 ppm, PDB, 7 days of incubation"}, "Pyrenophora teres": {"tested_on": "Pyrenophora teres", "experiment": "Pyrenophora teres test (barley)/curative", "conditions": "in Hordeum vulgare, 288 h, read-out: Efficacy in % found"}, "Alternaria solani": {"tested_on": "Alternaria solani", "experiment": "Alternaria solani test (tomato)/protective", "format": "in vivo", "conditions": "protective, 3 days after inoculation"}, "Pyricularia oryzae": {"tested_on": "Pyricularia oryzae", "format": "cell-based", "conditions": "3 ppm; in vitro, PDB, 3 days of incubation"}}, "data": [{"smiles": "Cc1nn(C)c(F)c1C(=O)Nc1ccccc1C(C)CC(C)C", "note": "(stereo not drawn) [(1-2), N-[2-(1,3-dimethylbutyl)phenyl]-5-fluoro-1,3-dimethyl-1H-pyrazole-4-carboxamide]", "values": [{"measurement": "Efficacy in % found", "setting": "Puccinia recondita", "value": 94, "unit": "%"}, {"measurement": "Efficacy in % found", "setting": "[1]", "value": 0, "unit": "%"}, {"measurement": "Efficacy in % found", "setting": "Rhizoctonia solani; 0.003 ppm", "value": 30, "unit": "%"}, {"measurement": "Efficacy in % found", "setting": "Rhizoctonia solani; 1 ppm", "value": 40, "unit": "%"}, {"measurement": "Efficacy in % found", "setting": "[2]", "value": 0, "unit": "%"}, {"measurement": "Efficacy in % found", "setting": "Botrytis cinerea [3]; application rate 5 g/ha", "value": 33, "unit": "%"}, {"measurement": "Efficacy in % found", "setting": "Botrytis cinerea [3]; application rate 10 g/ha", "value": 64, "unit": "%"}, {"measurement": "Efficacy in % found", "setting": "Botrytis cinerea [3]; application rate 20 g/ha", "value": 66, "unit": "%"}, {"measurement": "Efficacy in % found", "setting": "Plasmopara viticola; application rate 25 g/ha", "value": 0, "unit": "%"}, {"measurement": "Efficacy in % found", "setting": "Plasmopara viticola; application rate 50 g/ha", "value": 0, "unit": "%"}, {"measurement": "Efficacy in % found", "setting": "Gibberella zeae", "value": 39, "unit": "%"}, {"measurement": "pest or weed control at 0.5 g/ha", "setting": "Sphaerotheca fuliginea; application rate 0.5 g/ha", "value": 0, "unit": "%"}, {"measurement": "pest or weed control at 1 g/ha", "setting": "Sphaerotheca fuliginea; application rate 1 g/ha", "value": 18, "unit": "%"}, {"measurement": "pest or weed control at 2 g/ha", "setting": "Sphaerotheca fuliginea; application rate 2 g/ha", "value": 30, "unit": "%"}, {"measurement": "pest or weed control at 4 g/ha", "setting": "Sphaerotheca fuliginea; application rate 4 g/ha", "value": 20, "unit": "%"}, {"measurement": "Efficacy in % found", "setting": "Botrytis cinerea [4]", "value": 35, "unit": "%"}, {"measurement": "pest or weed control at 25 g/ha", "setting": "Pyrenophora teres", "value": 29, "unit": "%"}, {"measurement": "pest or weed control at 62.5 g/ha", "setting": "Pyrenophora teres", "value": 71, "unit": "%"}, {"measurement": "Efficacy in % found", "setting": "Alternaria solani; application rate 1 g/ha", "value": 3, "unit": "%"}, {"measurement": "Efficacy in % found", "setting": "Alternaria solani; application rate 2 g/ha", "value": 23, "unit": "%"}, {"measurement": "Efficacy in % found", "setting": "Pyricularia oryzae", "value": 17, "unit": "%"}]}]}
